Reference: US12600709B2, “Nonpeptide somatostatin type 5 receptor agonists and uses thereof” (Crinetics Pharmaceuticals, Inc., priority 2019, dated 2026)
Read-outs that look alike come from different tables or passages of the source.

Columns and labels:
[1] = molecular target: T1, human somatostatin receptor subtype 2 (Homo sapiens, UniProt P30874); assay: cAMP assay for SST2R (inhibition of cAMP in CHO-K1 cells); type: cell-based; conditions: Table B; inhibition of cAMP via human SST2 receptor; read-out: SST2 potency
T1 construct: expressed in transfected cells
T1 sequence (P30874 whole entry): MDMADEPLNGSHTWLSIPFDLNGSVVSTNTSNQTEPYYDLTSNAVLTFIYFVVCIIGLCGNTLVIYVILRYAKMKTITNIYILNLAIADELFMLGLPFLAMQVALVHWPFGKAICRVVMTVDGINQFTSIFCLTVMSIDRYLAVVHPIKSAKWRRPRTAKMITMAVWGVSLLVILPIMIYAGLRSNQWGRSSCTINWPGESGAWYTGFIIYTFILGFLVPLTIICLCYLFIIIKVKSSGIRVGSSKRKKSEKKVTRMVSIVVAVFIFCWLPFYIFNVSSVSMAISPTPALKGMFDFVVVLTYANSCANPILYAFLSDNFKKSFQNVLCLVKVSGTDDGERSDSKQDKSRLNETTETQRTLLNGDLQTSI
Procedure, shortened: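 CHO-K1 cells stably expressing human SSTR2, plated 4 days prior, treated 20 min at 37° C with 1.6 μM NKH477 plus compound dilutions in HBSS/HEPES pH 7.4/0.1% BSA/0.2 mM IBMX. Lysate cAMP measured by HTRF against standard curve; EC50 from concentration-response.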

[2] = molecular target: T2, human somatostatin receptor subtype 5 (Homo sapiens, UniProt P35346); assay: cAMP assay for SST5R (inhibition of cAMP in CHO-K1 cells); type: cell-based; conditions: for EC50: inhibition of cAMP via human SST5 receptor, read-out: SST5 potency; for Fold selectivity for SST5 vs SST2: class symbols, SST5 receptor over SST2 receptor
T2 construct: expressed in transfected cells
T2 sequence (P35346 whole entry): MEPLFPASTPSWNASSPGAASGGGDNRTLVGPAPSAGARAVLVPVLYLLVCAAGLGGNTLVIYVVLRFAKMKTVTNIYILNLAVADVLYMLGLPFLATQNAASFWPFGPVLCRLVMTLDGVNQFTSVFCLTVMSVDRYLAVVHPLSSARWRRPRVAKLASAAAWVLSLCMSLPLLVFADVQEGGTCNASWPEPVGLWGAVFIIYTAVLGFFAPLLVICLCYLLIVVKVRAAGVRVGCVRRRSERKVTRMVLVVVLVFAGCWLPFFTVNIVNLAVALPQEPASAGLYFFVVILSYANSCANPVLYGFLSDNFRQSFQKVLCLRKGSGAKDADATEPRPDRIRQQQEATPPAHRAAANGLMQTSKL
Procedure, shortened: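 CHO-K1 cells stably expressing human SSTR5 were treated 20 min at 37 °C with compounds plus 1.6 μM NKH477 in HBSS, 0.5 mM HEPES pH 7.4, 0.1% BSA, 0.2 mM IBMX. Lysate cAMP measured by HTRF against a standard curve; EC50 from cAMP-versus-concentration plots.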

Compound	EC50 [1] [nM]	EC50 ([2]; Table A) [nM]	Fold selectivity for SST5 vs SST2 ([2]; Table B)	EC50 ([2]; Table B) [nM]
Cc1ncc(C(=O)N[C@@H](C)C2CC2)c(N2CC[C@H](N)C2)c1-c1cc(F)cc(Cl)c1 [1-272, 4-[(3S)-3-aminopyrrolidin-1-yl]-5-(3-chloro-5-fluorophenyl)-N-[(1S)-1-cyclopropylethyl]-6-methylpyridine-3-carboxamide]	100 to 1000	< 10	+++ (+++=>500)	< 10
C[C@]1(N)CCN(c2c(C(=O)NC3CCCCC3)cncc2-c2cc(F)cc(F)c2)C1 [1-112, 4-[(3S)-3-amino-3-methylpyrrolidin-1-yl]-N-cyclohexyl-5-(3,5-difluorophenyl)pyridine-3-carboxamide]	100 to 1000	< 10	+++ (+++=>500)	< 10
CC(C)CNC(=O)c1cnc(C#N)c(-c2cc(F)cc(F)c2)c1N1CC[C@](C)(N)C1 [1-85, 4-[(3S)-3-amino-3-methylpyrrolidin-1-yl]-6-cyano-5-(3,5-difluorophenyl)-N-(2-methylpropyl)pyridine-3-carboxamide]	100 to 1000	< 10	+++ (+++=>500)	< 10
C[C@]1(N)CCN(c2c(C(=O)NC34CC(C3)C4)cncc2-c2cc(F)cc(F)c2)C1 [1-21, 4-[(3S)-3-amino-3-methylpyrrolidin-1-yl]-N-{bicyclo[1.1.1]pentan-1-yl}-5-(3,5-difluorophenyl)pyridine-3-carboxamide]	10 to 100	< 10	++ (++=100 to 499)	< 10
Cc1ncc(C(=O)N[C@@H](C)C(F)(F)F)c(N2CC[C@](C)(N)C2)c1-c1ccc(F)c(Cl)c1 [1-287, 4-[(3S)-3-amino-3-methylpyrrolidin-1-yl]-5-(3-chloro-4-fluorophenyl)-6-methyl-N-[(2S)-1,1,1-trifluoropropan-2-yl]pyridine-3-carboxamide]	10 to 100	< 10	+++ (+++=>500)	< 10
C[C@]1(N)CCN(c2c(C(=O)NC3CC(F)(F)C3)cnc(C#N)c2-c2cc(F)cc(F)c2)C1 [1-79, 4-[(3S)-3-amino-3-methylpyrrolidin-1-yl]-6-cyano-N-(3,3-difluorocyclobutyl)-5-(3,5-difluorophenyl)pyridine-3-carboxamide]	100 to 1000	< 10	+++ (+++=>500)	< 10
COc1cc(C#N)cc(-c2c(C(F)(F)F)ncc(C(=O)N[C@@H](C)C3CC3)c2N2CC[C@](C)(N)C2)c1 [1-197, 4-[(3S)-3-amino-3-methylpyrrolidin-1-yl]-5-(3-cyano-5-methoxyphenyl)-N-[(1S)-1-cyclopropylethyl]-6-(trifluoromethyl)pyridine-3-carboxamide]	100 to 1000	< 10	+++ (+++=>500)	< 10
Cc1ncc(C(=O)N[C@@H](C)C(F)(F)F)c(N2CC[C@H](N)C2)c1-c1cc(F)cc(Cl)c1 [1-276, 4-[(3S)-3-aminopyrrolidin-1-yl]-5-(3-chloro-5-fluorophenyl)-6-methyl-N-[(2S)-1,1,1-trifluoropropan-2-yl]pyridine-3-carboxamide]	100 to 1000	< 10	++ (++=100 to 499)	< 10
N[C@H]1CCN(c2c(C(=O)NC34CC(F)(C3)C4)cnc(C(F)(F)F)c2-c2cc(F)cc(F)c2)C1 [1-216, 4-[(3S)-3-aminopyrrolidin-1-yl]-5-(3,5-difluorophenyl)-N-{3-fluorobicyclo[1.1.1]pentan-1-yl}-6-(trifluoromethyl)pyridine-3-carboxamide]	> 1000	< 10	+++ (+++=>500)	< 10
COc1cc(C#N)cc(-c2c(C)ncc(C(=O)NC3CCC(F)(F)CC3)c2N2CC[C@](C)(N)C2)c1 [1-268, 4-[(3S)-3-amino-3-methylpyrrolidin-1-yl]-5-(3-cyano-5-methoxyphenyl)-N-(4,4-difluorocyclohexyl)-6-methylpyridine-3-carboxamide]	> 1000	< 10	+++ (+++=>500)	< 10
C[C@H](NC(=O)c1cnc(C(F)(F)F)c(-c2cc(F)cc(F)c2)c1N1CC[C@H](N)C1)C(F)(F)F [1-212, 4-[(3S)-3-aminopyrrolidin-1-yl]-5-(3,5-difluorophenyl)-6-(trifluoromethyl)-N-[(2S)-1,1,1-trifluoropropan-2-yl]pyridine-3-carboxamide]	100 to 1000	< 10	+++ (+++=>500)	< 10
CCOC(=O)COc1ncc(C(=O)NC2CCC(F)(F)CC2)c(N2CC[C@H](N)C2)c1-c1cc(F)cc(F)c1 [1-200, ethyl 2-({4-[(3S)-3-aminopyrrolidin-1-yl]-5-[(4,4-difluorocyclohexyl)carbamoyl]-3-(3,5-difluorophenyl)pyridin-2-yl}oxy)acetate]	100 to 1000	< 10	+++ (+++=>500)	< 10
